Laboratory results published in PMC8876511, “Two out of Three Musketeers Fight against Cancer: Synthesis, Physicochemical, and Biological Properties of Phosphino Cu^I, Ru^II, Ir^III Complexes” (Pharmaceuticals, 2022).

Key:
Solubility (qualitative) = format: physicochemical; conditions: H2O:DMSO (100:1)
PANC-1 cells = assay: MTT cytotoxicity assay, PANC-1; format: cell-based, human; conditions: 48 h
A549 cells [1] = assay: MTT cytotoxicity assay, A549; format: cell-based, human
Method: (§1) Moreover, to investigate the activity of synthesized complexes as potential anticancer agents, their cytotoxicity toward a series of human cancer cell lines and a non-cancer cell line (HaCaT) was evaluated using the MTT assay. […] In addition, we also determined the cytotoxic activity of free ligands toward selected cancer cells. […] However, this effect depends on the cell line. […] The best values of cytotoxic activity of compounds have been obtained after 72 h of cell incubation. Additionally, synthesized complexes had high sensitivity to A549 cells, so this cell line was selected as the research subject for antitumor activity.
(§2) MCF7 cell line (human breast adenocarcinoma, morphology: epithelial-like, ATCC: HTB-22) and A549 cell line (human lung adenocarcinoma, morphology: epithelial, ATCC: CCL-185); HaCaT (human keratinocyte) were cultured in Dulbecco’s Modified Eagle’s Medium (DMEM, Corning, Poland) with phenol red, supplemented with 10% fetal bovine serum (FBS) and with 1% streptomycin/penicillin. Du-145 cell line (human prostate carcinoma); derived from metastatic site: brain was cultured in minimum essential medium (MEM, Corning) with only 10% fetal bovine serum (FBS). Cultures were incubated at 37 °C under a humidified atmosphere containing 5% CO2. Cells were passaged using a solution containing 0.05% trypsin and 0.5 mM EDTA. All media and other ingredients were purchased from ALAB, Poland.
(§3) Since most of the studied compounds are insoluble in aqueous media (Dulbecco’s Modified Eagle’s Medium or minimum essential medium (MEM, Corning), therefore, they needed to be pre-dissolved in DMSO for biological tests. DMSO concentration was kept below 1% in each tested concentration of each compound. Cytotoxicity was assessed by MTT assay performed according to the protocols described previously in the following experimental approaches: 6 h + 24 h, 24 h + 24 h, and 72 h + 24 h. In brief, 5×10^3 per well (0.2 mL) in the two first approaches, while 1×10^4 cells in the case of longer incubation time were seeded in 96-well flat-bottom microtiter plate, were incubated with the tested complexes at various ranges of concentrations. After an appropriate incubation time of 6, 24, or 72 h, the cells were washed thee time with PBS and fresh medium was applied for a further 24 h in each approach. Various compound concentrations (dilutions in proper medium supplemented with 1% FBS) were tested in five replicates and repeated at least three times. Determined values of IC50 (concentration of a drug required to inhibit the growth of 50% of the cells) are given as mean + S.D. (Standard Deviation). IC50 values were determined, from the plots of cell viability in the presence of various concentrations of each compound by matching dose–response curves and using the Origin 9.0 software. Furthermore, post-treatment survival assessment of the treated cells was analyzed under an inverted fluorescence microscope (Olympus IC51, Japan) with an excitation filter 470/20 nm. For this, cells were stained with two versatile fluorescence dyes: fluorescein diacetate (FDA, 5 mg/mL) and propidium iodide (PI, 5 mg/mL) in standard conditions in the dark for 20 min. Before visualization, dyes were removed and cells were washed with PBS twice.

A549 cells [2] = assay: MTT cytotoxicity assay, A549; format: cell-based, human; conditions: 48 h
Du-145 cells = assay: MTT cytotoxicity assay, Du-145; format: cell-based, human
Method: as §1, §2
as §3, with “Cytotoxicity was assessed by MTT assay performed according to the protocols described previously in the following experimental approaches: 6 h + 24 h, 24 h + 24 h, and 72 h + 24 h.” left out, “After an appropriate incubation time of 6, 24, or 72 h, the cells were washed thee time with PBS and fresh medium was applied for a further 24 h in each approach.” left out

[3] = Partition coefficient, shake-flask method (n-octanol/PBS); format: physicochemical
Method: The partition coefficient was determined by the shake-flask method. A small amount of compound was dissolved in 5 mL PBS-saturated n-octanol. The sample was sonicated until all the compound was dissolved. Next, 5 mL of PBS saturated with n-octanol was added and the experiment proceeded as before. The resulting mixture was vortexed for 30 min in horizontal position. The sample was centrifuged for 2 min at 3700 rpm to obtain a phase separation. Next, 2 mL of each phase was taken. The next steps were a 5 min sonication and measurement of absorption spectra of the obtained solutions. The calibration curve was prepared in order to determine the concentration of the tested compounds in individual solutions. It was made using the absorption intensity of the compounds in series dilution solutions in PBS saturated with octanol or octanol saturated with PBS in the concentration range c = 1–100 nM.

A549 cells [4] = assay: Cell cycle analysis by PI staining, flow cytometry; format: cell-based, human; conditions: synchronized A549, various concentrations, 24 h
Method: Antitumor drugs induce cell cycle arrest by inhibiting DNA synthesis and enhancing DNA damage, ultimately leading cancer cells to apoptosis. We further studied the influence of Ir(III) and Ru(II) complexes on cell cycle distribution. Synchronized A549 cells were treated with Ir(III) (1a, 2a) or Ru(II) (1b, 2b) at various concentrations for 24 h. Cells were stained with propidium iodide (PI) and analyzed by flow cytometry. […] An arrest in S-phase implies that the cell cannot duplicate its DNA. Other authors recently reported a similar effect for iridium(III)polypyridyl complexes. Moreover, the percentage of the G2/M population also increases. However, higher doses (>10 μM) of Ir(III) complexes can enhance G0/G1-phase arrest.
The serum starvation protocol was used to synchronize cell cultures. A549 cells were seeded in a 12-well plate in a growth medium with 20% FBS overnight. Then, the cultures were washed by PBS and changed to a serum-free medium. After serum starvation for 24 h, cells were released into the cell cycle by the addition of serum and tested compounds solution for 24 h. The cells were then detached from the plate using trypsin. […] Cells were analyzed with the Guava® easyCyte™ flow cytometer equipped with a 488 nm laser. The obtained data were analyzed using InCyte Software (MerckMillipore, Burlington, MA, USA).

| Compound | solubility in mixture of H2O:DMSO (100:1) (Solubility (qualitative)) | IC50 (PANC-1 cells) [µM] | IC50 (A549 cells [1]; 24 h) [µM] | IC50 (A549 cells [1]; 72 h) [µM] | IC50 (A549 cells [2]) [µM] | IC50 (Du-145 cells; 24 h) [µM] | IC50 (Du-145 cells; 48 h) [µM] | IC50 (Du-145 cells; 72 h) [µM] | Experimental LogP (logPo/w) [3] | cell cycle perturbations (A549 cells [4]) |
| --- | --- | --- | --- | --- | --- | --- | --- | --- | --- | --- |
| CCN(CC)C[P+](c1ccccc1)(c1ccccc1)[Ir-3]([Cl])([Cl])[C]1(C)C(C)=C(C)C(C)=C1C [1a, Ir(η^5-Cp*)Cl2Ph2PCH2N(CH2CH3)2] | well soluble | 204 ± 29 | 68 ± 5 | 12 ± 3 | 45 ± 4 | 90 ± 5 | 85 ± 9 | 19 ± 3 | 3.03 | concentration-dependent cell cycle perturbations |
| Ru(η^6-p-cymene)Cl2Ph2PCH2N(CH2CH3)2 [1b] | well soluble | 305 ± 13 | 59 ± 3 | 10 ± 1 | 425 ± 38 | 122 ± 11 | 126 ± 12 | 23 ± 2 | 3.1 | concentration-dependent cell cycle perturbations |
